Test results reported in ChEMBL document CHEMBL1151943, “The glutamate receptor GluR5 agonist (S)-2-amino-3-(3-hydroxy-7,8-dihydro-6H-cyclohepta[d]isoxazol-4-yl)propionic acid and the 8-methyl analogue: synthesis, molecular pharmacology, and biostructural characterization” (J Med Chem, 2009).
pEC50, pIC50, pKi: −log10 of the molar value.

Experiments:
[1] = target: Glutamate NMDA receptor; experiment: Displacement of […] from NMDA receptor in rat cortical synaptosomes; format: subcellular, Brain
[2] = target: T1, Glutamate receptor 1 (Rattus norvegicus, UniProt P19490); experiment: Displacement of [3H]AMPA from rat recombinant GluR1 flop isoform expressed in baculovirus infected Sf9 cells
[3] = target: T2, Glutamate receptor 2 (Rattus norvegicus, UniProt P19491); experiment: Displacement of [3H]AMPA from rat recombinant GluR2(R) RNA-edited flop isoform expressed in baculovirus infected Sf9 cells
[4] = target: T3, Glutamate receptor 3 (Rattus norvegicus, UniProt P19492); experiment: Displacement of [3H]AMPA from rat recombinant GluR3 flop isoform expressed in baculovirus infected Sf9 cells
[5] = target: T4, Glutamate receptor 4 (Rattus norvegicus, UniProt P19493); experiment: Displacement of [3H]AMPA from rat recombinant GluR4 flop isoform expressed in baculovirus infected Sf9 cells
[6] = target: T1, Glutamate receptor 1; experiment: Agonist activity at rat recombinant GluR1 flip isoform expressed in HEK293 cells assessed as increase in intracellular calcium level by Fluo-4/AM assay; format: functional, cell-based
[7] = target: T3, Glutamate receptor 3; experiment: Agonist activity at rat recombinant GluR3 flip isomer expressed in HEK293 cells assessed as increase in intracellular calcium level by Fluo-4/AM assay; format: functional, cell-based; conditions: for pEC50: read-out: EC50
[8] = target: T1, Glutamate receptor 1; experiment: Agonist activity at ConA-treated rat GluR1 flip isoform expressed in Xenopus laevis oocytes assessed as glutamic acid-induced maximal current by two-electrode voltage clamp method; format: functional, cell-based, Oocyte
[9] = target: T2, Glutamate receptor 2
Description: Agonist activity at rat recombinant GluR2(Q) RNA-edited isoform expressed in HEK293 cells assessed as increase in intracellular calcium level by Fluo-4/AM assay

[10] = Displacement of [3H]AMPA from AMPA receptor in rat cortical synaptosomes; format: subcellular, Brain
[11] = Displacement of [3H]KA from KA receptor in rat cortical synaptosomes; format: subcellular, Brain
[12] = target: Glutamate receptor 1 (Rattus norvegicus) (UniProt P19490); experiment: Agonist activity at rat recombinant GluR1 flip isoform expressed in HEK293 cells assessed as increase in intracellular calcium level by Fluo-4/AM assay relative to glutamic acid; format: functional, cell-based
[13] = target: Glutamate receptor 3 (Rattus norvegicus) (UniProt P19492); experiment: Agonist activity at rat recombinant GluR3 flip isomer expressed in HEK293 cells assessed as increase in intracellular calcium level by Fluo-4/AM assay relative to glutamic acid; format: functional, cell-based
[14] = target: T4, Glutamate receptor 4; experiment: Agonist activity at rat recombinant GluR4 flip isomer expressed in HEK293 cells assessed as increase in intracellular calcium level by Fluo-4/AM assay; format: functional, cell-based; conditions: for pEC50: read-out: EC50
[15] = target: Glutamate receptor 4 (Rattus norvegicus) (UniProt P19493); experiment: Agonist activity at rat recombinant GluR4 flip isomer expressed in HEK293 cells assessed as increase in intracellular calcium level by Fluo-4/AM assay relative to glutamic acid; format: functional, cell-based
[16] = target: Glutamate NMDA receptor; experiment: Displacement of [3H]CGP from NMDA receptor in rat cortical synaptosomes; format: subcellular, Brain
[17] = target: T5, Glutamate receptor ionotropic, kainate 1 (Rattus norvegicus, UniProt P22756); experiment: Displacement of [3H]SYM from rat recombinant GluR5(Q) RNA-edited isoform expressed in baculovirus infected Sf9 cells
[18] = target: T6, Glutamate receptor ionotropic, kainate 2 (Rattus norvegicus, UniProt P42260); experiment: Displacement of [3H]KA from rat recombinant GluR6(VCR) RNA-edited isoform expressed in baculovirus infected Sf9 cells
[19] = target: Glutamate receptor ionotropic, kainate 3 (Rattus norvegicus, UniProt P42264); experiment: Displacement of [3H]SYM from rat recombinant GluR7A expressed in baculovirus infected Sf9 cells
[20] = target: T6, Glutamate receptor ionotropic, kainate 2; experiment: Agonist activity at rat recombinant GluR6(Q) RNA-edited isoform expressed in HEK293 cells assessed as increase in intracellular calcium level by Fluo-4/AM assay; format: functional, cell-based
[21] = target: T5, Glutamate receptor ionotropic, kainate 1; experiment: Agonist activity at ConA-treated rat GluR5(Q) RNA-edited isoform expressed in Xenopus laevis oocytes assessed as glutamic acid-induced maximal current by two-electrode voltage clamp method; format: functional, cell-based, Oocyte
[22] = target: Glutamate NMDA receptor; Grin1/Grin2a (Rattus norvegicus, UniProt P35439+Q00959); experiment: Agonist activity at ConA-treated rat NR1/NR2A expressed in Xenopus laevis oocytes assessed as glycine-induced maximal current by two-electrode voltage clamp method; format: functional, cell-based, Oocyte
[23] = target: T5, Glutamate receptor ionotropic, kainate 1
Description: Agonist activity at rat recombinant GluR5(Q) RNA-edited isoform expressed in HEK293 cells assessed as increase in intracellular calcium level by Fluo-4/AM assay

T4 sequence (P19493 whole entry, canonical isoform): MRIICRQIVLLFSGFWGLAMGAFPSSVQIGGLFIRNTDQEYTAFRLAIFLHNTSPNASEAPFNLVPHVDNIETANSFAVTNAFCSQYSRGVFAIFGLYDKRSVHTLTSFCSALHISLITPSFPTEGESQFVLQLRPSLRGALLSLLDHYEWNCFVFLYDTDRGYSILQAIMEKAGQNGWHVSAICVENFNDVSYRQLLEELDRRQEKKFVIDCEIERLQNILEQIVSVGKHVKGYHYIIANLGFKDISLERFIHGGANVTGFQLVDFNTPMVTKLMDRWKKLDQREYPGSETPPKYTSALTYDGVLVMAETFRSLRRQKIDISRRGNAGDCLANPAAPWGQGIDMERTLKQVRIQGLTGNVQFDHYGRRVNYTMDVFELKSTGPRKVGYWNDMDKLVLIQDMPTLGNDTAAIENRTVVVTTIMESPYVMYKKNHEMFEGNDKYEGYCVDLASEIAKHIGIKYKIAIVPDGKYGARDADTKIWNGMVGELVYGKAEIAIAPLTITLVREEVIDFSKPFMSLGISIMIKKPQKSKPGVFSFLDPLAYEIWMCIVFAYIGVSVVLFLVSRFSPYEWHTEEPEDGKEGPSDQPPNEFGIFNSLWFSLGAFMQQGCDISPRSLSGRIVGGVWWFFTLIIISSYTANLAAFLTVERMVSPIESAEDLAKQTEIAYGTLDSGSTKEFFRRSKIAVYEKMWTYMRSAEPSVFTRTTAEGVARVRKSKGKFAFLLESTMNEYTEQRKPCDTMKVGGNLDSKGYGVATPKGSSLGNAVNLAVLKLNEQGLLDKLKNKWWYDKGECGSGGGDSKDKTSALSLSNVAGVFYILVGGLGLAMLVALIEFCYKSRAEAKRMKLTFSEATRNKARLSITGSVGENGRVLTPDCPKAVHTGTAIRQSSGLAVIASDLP
Sequence of Glutamate receptor 4 (Rattus norvegicus) (P19493 whole entry): as the sequence (P19493 whole entry, canonical isoform) above
T2 sequence (P19491 whole entry, canonical isoform): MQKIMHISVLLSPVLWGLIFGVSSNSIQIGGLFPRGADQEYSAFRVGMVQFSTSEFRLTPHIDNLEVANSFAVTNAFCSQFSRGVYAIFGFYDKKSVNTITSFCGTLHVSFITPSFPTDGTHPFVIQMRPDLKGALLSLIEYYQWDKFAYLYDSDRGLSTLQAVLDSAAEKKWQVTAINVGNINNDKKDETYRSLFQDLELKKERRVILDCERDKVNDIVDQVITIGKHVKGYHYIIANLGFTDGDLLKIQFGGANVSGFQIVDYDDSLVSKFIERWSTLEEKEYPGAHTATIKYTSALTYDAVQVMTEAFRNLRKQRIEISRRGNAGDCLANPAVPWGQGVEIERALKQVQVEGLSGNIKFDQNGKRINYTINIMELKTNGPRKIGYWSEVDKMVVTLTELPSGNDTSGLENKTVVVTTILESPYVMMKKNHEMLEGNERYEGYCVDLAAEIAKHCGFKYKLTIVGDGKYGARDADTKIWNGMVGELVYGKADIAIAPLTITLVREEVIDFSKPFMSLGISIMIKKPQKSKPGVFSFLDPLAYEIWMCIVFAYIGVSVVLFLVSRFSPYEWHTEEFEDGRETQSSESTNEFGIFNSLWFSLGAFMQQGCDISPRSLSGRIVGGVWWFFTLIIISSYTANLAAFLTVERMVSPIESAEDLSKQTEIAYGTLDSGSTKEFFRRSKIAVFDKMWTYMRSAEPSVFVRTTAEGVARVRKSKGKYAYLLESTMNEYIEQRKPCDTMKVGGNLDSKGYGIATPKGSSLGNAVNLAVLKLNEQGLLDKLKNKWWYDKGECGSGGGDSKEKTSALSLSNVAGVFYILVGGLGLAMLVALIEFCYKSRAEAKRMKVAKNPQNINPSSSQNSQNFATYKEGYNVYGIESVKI
T1 sequence (P19490 whole entry, canonical isoform): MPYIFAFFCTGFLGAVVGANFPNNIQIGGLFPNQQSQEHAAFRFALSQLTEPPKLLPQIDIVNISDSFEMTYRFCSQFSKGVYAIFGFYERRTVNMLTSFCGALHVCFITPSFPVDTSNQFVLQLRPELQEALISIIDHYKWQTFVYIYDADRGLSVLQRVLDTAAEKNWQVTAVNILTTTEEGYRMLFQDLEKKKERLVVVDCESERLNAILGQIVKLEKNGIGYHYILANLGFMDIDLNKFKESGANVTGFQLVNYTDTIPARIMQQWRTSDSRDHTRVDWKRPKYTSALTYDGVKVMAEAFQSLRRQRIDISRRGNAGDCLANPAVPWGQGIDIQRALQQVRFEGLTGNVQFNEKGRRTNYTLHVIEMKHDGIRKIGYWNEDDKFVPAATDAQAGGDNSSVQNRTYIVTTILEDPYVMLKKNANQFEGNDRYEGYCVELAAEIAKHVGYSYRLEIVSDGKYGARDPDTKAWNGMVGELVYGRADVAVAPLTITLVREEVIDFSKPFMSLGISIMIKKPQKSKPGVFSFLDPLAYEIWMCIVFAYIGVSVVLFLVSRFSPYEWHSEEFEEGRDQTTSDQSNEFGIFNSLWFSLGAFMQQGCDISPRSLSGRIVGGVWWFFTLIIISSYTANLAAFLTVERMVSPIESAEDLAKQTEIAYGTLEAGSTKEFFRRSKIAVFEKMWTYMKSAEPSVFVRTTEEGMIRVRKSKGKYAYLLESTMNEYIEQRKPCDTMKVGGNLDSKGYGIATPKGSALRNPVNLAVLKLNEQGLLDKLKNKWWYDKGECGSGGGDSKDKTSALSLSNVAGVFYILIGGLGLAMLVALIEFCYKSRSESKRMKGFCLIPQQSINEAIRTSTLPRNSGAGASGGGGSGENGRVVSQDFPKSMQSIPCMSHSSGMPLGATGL
Sequence of Glutamate receptor 1 (Rattus norvegicus) (P19490 whole entry, canonical isoform): as above
T5 sequence (P22756 whole entry, canonical isoform): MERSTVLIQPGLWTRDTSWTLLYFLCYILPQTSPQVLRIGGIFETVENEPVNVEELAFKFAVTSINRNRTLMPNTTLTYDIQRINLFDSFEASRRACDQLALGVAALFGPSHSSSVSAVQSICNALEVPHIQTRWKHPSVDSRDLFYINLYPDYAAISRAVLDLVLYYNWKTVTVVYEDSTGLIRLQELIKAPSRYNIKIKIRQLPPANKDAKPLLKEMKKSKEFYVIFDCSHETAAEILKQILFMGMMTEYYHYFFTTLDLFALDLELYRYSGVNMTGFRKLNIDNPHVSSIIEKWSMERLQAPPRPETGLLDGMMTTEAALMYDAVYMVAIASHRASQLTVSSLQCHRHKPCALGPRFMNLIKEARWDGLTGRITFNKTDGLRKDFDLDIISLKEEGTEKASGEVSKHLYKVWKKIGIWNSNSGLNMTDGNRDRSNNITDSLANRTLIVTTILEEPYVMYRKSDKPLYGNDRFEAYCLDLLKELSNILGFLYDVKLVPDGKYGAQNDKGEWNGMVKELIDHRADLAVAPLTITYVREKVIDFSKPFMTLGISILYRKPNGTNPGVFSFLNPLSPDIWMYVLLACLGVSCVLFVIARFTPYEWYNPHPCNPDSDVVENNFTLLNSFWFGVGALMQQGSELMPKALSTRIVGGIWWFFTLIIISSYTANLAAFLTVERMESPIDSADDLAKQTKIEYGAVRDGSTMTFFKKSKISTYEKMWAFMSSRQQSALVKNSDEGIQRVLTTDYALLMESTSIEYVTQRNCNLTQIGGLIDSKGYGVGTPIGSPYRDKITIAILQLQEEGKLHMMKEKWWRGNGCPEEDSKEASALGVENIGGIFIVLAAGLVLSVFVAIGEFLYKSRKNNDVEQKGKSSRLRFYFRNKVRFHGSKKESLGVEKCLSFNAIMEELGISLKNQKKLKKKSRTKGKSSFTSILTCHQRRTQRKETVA
Sequence of Glutamate receptor 3 (Rattus norvegicus) (P19492 whole entry): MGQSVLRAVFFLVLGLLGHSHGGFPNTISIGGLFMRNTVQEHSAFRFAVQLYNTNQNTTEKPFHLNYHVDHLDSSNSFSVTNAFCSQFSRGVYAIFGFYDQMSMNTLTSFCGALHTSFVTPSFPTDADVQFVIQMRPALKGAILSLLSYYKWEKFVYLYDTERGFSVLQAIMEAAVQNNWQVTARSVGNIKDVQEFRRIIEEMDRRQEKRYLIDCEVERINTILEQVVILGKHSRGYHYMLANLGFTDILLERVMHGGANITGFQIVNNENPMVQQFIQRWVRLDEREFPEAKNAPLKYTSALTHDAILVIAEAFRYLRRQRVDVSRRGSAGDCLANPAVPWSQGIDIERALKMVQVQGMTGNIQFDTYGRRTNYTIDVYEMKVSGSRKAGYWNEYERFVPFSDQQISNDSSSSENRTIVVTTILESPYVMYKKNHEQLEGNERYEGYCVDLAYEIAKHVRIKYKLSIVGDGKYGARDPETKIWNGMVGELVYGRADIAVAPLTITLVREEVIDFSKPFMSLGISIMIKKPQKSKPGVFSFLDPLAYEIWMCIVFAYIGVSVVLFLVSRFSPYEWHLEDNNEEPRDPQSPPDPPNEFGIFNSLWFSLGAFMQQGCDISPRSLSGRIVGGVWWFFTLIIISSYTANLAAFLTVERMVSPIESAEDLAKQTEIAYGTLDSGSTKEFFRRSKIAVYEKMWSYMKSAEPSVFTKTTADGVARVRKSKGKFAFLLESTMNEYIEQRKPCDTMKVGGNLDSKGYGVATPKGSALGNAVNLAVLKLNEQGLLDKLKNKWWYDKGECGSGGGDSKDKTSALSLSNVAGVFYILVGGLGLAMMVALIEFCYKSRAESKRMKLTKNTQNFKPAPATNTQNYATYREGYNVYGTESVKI
T3 sequence (P19492 whole entry, canonical isoform): as the sequence (P19492 whole entry) above

Structure (SMILES)	pKi [2]	pKi [3]	pKi [4]	pKi [5]	pEC50 [6]	pEC50 [7]	pEC50 [8]	pEC50 [9]	pIC50 [10]	pIC50 [11]	Activity [12]	Activity [13]	Activity [15]	pKi [16]	pEC50 [14]	further results
CC(C)(C)c1o[nH]c(=O)c1C[C@H](N)C(=O)O	5.56	5.78	5.69	5.67	3.14	3.20	4.21	< 3.00	–	–	–	–	–	–	–	pKi [1]: < 4.00
CC(C)(C)c1onc(O)c1C[C@H](N)C(=O)O	–	–	–	–	–	–	–	–	5.74	4.64	101%	100%	102%	–	–	pEC50 ([14]; hek293): 3.82
N[C@@H](CC1=CCCCc2onc(O)c21)C(=O)O	6.63	6.76	6.76	6.69	4.49	4.89	5.35	4.04	6.55	5.80	28%	54%	79%	< 4.00	5.17	–
CC1CCC=C(C[C@H](N)C(=O)O)c2c(O)noc21 (mixture of isomers)	5.81	5.20	5.95	5.66	4.15	4.32	4.15	3.80	5.01	5.08	29%	46%	68%	< 4.00	4.46	pKi [17]: 8.29; pKi [18]: < 4.00; pKi [19]: 5.86; EC50 ([7]; read-out: pEC50 (converted)): 63.1 µM; EC50 ([14]; read-out: pEC50 (converted)): 158 µM; pEC50 [20]: < 3.00; pEC50 [21]: 6.62; pEC50 [22]: < 3.00; pEC50 [23]: 6.07
Cc1onc(O)c1C[C@H](N)C(=O)O [(S)-AMPA]	–	–	–	–	–	–	–	–	7.41	< 4.00	–	–	–	–	–	–
C=C(C)[C@H]1CN[C@H](C(=O)O)[C@H]1CC(=O)O [KAINIC ACID]	–	–	–	–	–	–	–	–	–	–	18%	45%	55%	–	4.33	–
